Assay [1] has as its system PBMCs. In words: Ex vivo IFNγ ELISpot assay. It is filed as cell-based, human. The following applies: for Effector CD8^+ T cell responses across multiple individuals: ex vivo IFNγ ELISpot, HLA-A*02:01-restricted, Fig. 6c. How it is done: IFNγ ELISpot assays were performed according to the manufacturer’s instructions (Mabtech). PBMCs were incubated with individual peptides from EBV at a final concentration of 0.5 μg ml^−1 for 16–18 h. Positive controls were anti-human CD3 (Clone OKT3, BioLegend, 0.5 μg ml^−1) and anti-human CD28 (Clone CD28.2, BioLegend, 0.5 μg ml^−1) antibodies. The number of spot-forming units in the highest-value DMSO control well was subtracted from each experimental well. Responses were considered positive if both replicates had greater than or equal to five spot-forming units per well above background.

For assay [2], the system named is CD8^+ T cells. In words: Ex vivo proliferation assay (CellTrace Far Red). It is filed as cell-based, human. The following applies: HLA-A*02:01-restricted, Fig. 6d. The method, then: PBMCs were suspended at 1 × 10^6 cells per ml in 1 μM CellTrace Far Red dye (ThermoFisher) in PBS and incubated at 37 °C for 20 min. Cells were protected from light and mixed every 5 min during the incubation. RPMI supplemented with 10% fetal bovine serum was added to quench the reaction for 5 min, followed by centrifugation at 1,500 rpm for 3 min before resuspension in culture media. Cells were plated into 96-well U-bottom plates (Corning) (200,000 cells per well in 200 μl of culture media) and incubated with individual EBV peptides at a concentration of 0.5 μg ml^−1 for 5 days. Cells were washed with PBS supplemented with 2% fetal bovine serum and stained with anti-human CD3-BUV395 (Clone UCHT1, BD Biosciences, 1:100 dilution), anti-human CD4-PE-Cy7 (Clone OKT4, BioLegend, 1:100 dilution), anti-human CD8-BV605 (Clone SK1, BioLegend, 1:100 dilution) and live/dead violet viability dye (Life Technologies). Cells were washed and fixed in 2% paraformaldehyde and flow cytometric analysis was performed on a BD LSR Fortessa (BD Biosciences).

The values below come from paper PMC11847706, “Deep learning enhances the prediction of HLA class I-presented CD8^+ T cell epitopes in foreign pathogens” (Nature Machine Intelligence, 2025).

Take HSDYQPLGTQDQSLY: in assay [1] (HLA-A*02:01, 15mer, LMP2A: 71-85), the “Immunogenicity (T cell reactivity)” value is “immunogenic”.
On to SIIPRTPDV [A*02-SV9], for which, in assay [1], the “Effector CD8^+ T cell responses across multiple individuals” value is reported as “capable of eliciting”. Moreover, the “Memory CD8^+ T cell responses across multiple individuals” value in assay [2] was “capable of eliciting”.
On to YVLDHLIVV [A*02-YV9], for which, in assay [1], the “Effector CD8^+ T cell responses across multiple individuals” value is “capable of eliciting”. Further, the “Memory CD8^+ T cell responses across multiple individuals” value in assay [2] is “capable of eliciting”.
